According to ChEMBL document CHEMBL1201862, “PubChem BioAssay data set” (2004):
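The compound was tested at five concentrations on cells cultured in 96-well plates, with a 48-hour exposure period. GI50 marks 50% less growth.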 Activity calls are given as the source filed them. Cut-off read from the data, not from the text of the source: active = GI50 up to about 1.1 µM and inactive = higher.

Experiments:
Assay in all cases: inhibition of tumour cell growth, NCI panel, 48 h
DLD-1 = system: DLD-1
DMS-114 = system: DMS-114
DMS-273 = system: DMS-273
KM-20L2 = system: KM-20L2
M19-MEL = system: M19-MEL
SNB-78 = system: SNB-78
XF498 = system: XF498
HOP-18 = system: HOP-18
RXF 631 = system: RXF 631

SMILES	GI50 (DLD-1)	GI50 (DMS-114)	GI50 (DMS-273)	GI50 (KM-20L2)	GI50 (M19-MEL)	GI50 (SNB-78)	GI50 (XF498)	GI50 (HOP-18)	GI50 (RXF 631)
CC1=C(O)/C(=C/C(C)CCC/C(C)=C/C=C/C(C)CCCc2ccoc2)OC1=O (stereo not drawn)	31 µM (inactive)	49.7 µM (inactive)	55.3 µM (inactive)	29.6 µM (inactive)	48.3 µM (inactive)	18.3 µM (inactive)	7.08 µM (inactive)	–	–
CN(C)c1n/c(=N/c2ccc3c(c2)OCO3)ss1	79.8 µM (inactive)	38.6 µM (inactive)	66.5 µM (inactive)	39.9 µM (inactive)	> 100 µM (inactive)	44 µM (inactive)	48.5 µM (inactive)	> 100 µM (inactive)	–
CC(=O)OC1CC2C(C)(C)OC(=O)CC(OC(C)=O)[C@]2(C)C2CCC3(C)C(=CCC3[C@H]3COC(=O)C3)[C@]12C (stereo partly drawn)	71.6 µM (inactive)	70.1 µM (inactive)	88.9 µM (inactive)	> 100 µM (inactive)	80.2 µM (inactive)	> 100 µM (inactive)	> 100 µM (inactive)	–	–
O/N=C1/C(=C/c2ccc3c(c2)OCO3)CCCC1C(NO)c1ccc2c(c1)OCO2 (stereo not drawn)	28.4 µM (inactive)	22.6 µM (inactive)	21.8 µM (inactive)	18.2 µM (inactive)	24.8 µM (inactive)	31.3 µM (inactive)	22.7 µM (inactive)	18.2 µM (inactive)	–
O=C(CCN1CCCCC1)N1CCc2c([nH]c3ccccc23)C1c1cccnc1 (stereo not drawn)	48.4 µM (inactive)	27.9 µM (inactive)	39.8 µM (inactive)	30.1 µM (inactive)	21.2 µM (inactive)	> 86.7 µM (inactive)	21.2 µM (inactive)	> 100 µM (inactive)	31 µM (inactive)
Cc1ccc(/N=N/c2c(-c3ccccc3)nn(C(=O)CC(=O)Nc3ccc(Cl)cc3)c2-c2ccccc2)cc1	83.6 µM (inactive)	44.5 µM (inactive)	> 100 µM (inactive)	63.4 µM (inactive)	–	79.6 µM (inactive)	–	> 100 µM (inactive)	59.4 µM (inactive)
CC(=O)C(CN(C)Cc1ccccc1)C(c1ccccc1)c1c(O)c2ccccc2oc1=O (stereo not drawn)	> 100 µM (inactive)	> 100 µM (inactive)	> 100 µM (inactive)	55.8 µM (inactive)	> 100 µM (inactive)	> 100 µM (inactive)	–	–	–
CCCCCCCCCCCCCCC(C)CCC(=O)O (stereo not drawn)	> 100 µM (inactive)	–	–	–	47.2 µM (inactive)	> 100 µM (inactive)	59.4 µM (inactive)	> 100 µM (inactive)	–
CSc1nc(NC2OCC(OC(C)=O)C(OC(C)=O)C2OC(C)=O)c2c(n1)OCC2=O (stereo not drawn)	> 100 µM (inactive)	> 100 µM (inactive)	> 100 µM (inactive)	> 100 µM (inactive)	> 100 µM (inactive)	> 100 µM (inactive)	–	–	–
COC(=O)[C@H](C)[C@H]1CC[C@@](C)([C@H]2CC3C(C)(C)[C@H]4CCC(C)=C[C@H]4C[C@@]3(C)O2)OO1 (stereo partly drawn)	12 µM (inactive)	3.58 µM (inactive)	12.6 µM (inactive)	13.4 µM (inactive)	13.2 µM (inactive)	10.8 µM (inactive)	10 µM (inactive)	–	–
CCN(CC)CCNc1ccc2ncn3c4ccc(O)cc4c(=O)c1c23	0.544 µM (active)	–	0.0731 µM (active)	1.23 µM (inactive)	1.38 µM (inactive)	0.541 µM (active)	0.173 µM (active)	5.92 µM (inactive)	–
C/C(=N\NC(=S)NNC(=S)N(C)c1ccccc1)c1ccccn1	0.618 µM (active)	0.399 µM (active)	1.46 µM (inactive)	–	0.547 µM (active)	8.55 µM (inactive)	14.1 µM (inactive)	0.198 µM (active)	–
CC(C)Cc1ccc(C(C)CC2=CCC(CN(C)C)C2=O)cc1 (stereo not drawn)	2.33 µM (inactive)	4.27 µM (inactive)	4.41 µM (inactive)	11.4 µM (inactive)	4.11 µM (inactive)	6.43 µM (inactive)	–	18.5 µM (inactive)	16.6 µM (inactive)
C[N+](C)(C)CC1CCCC(C[N+](C)(C)C)C1=NO (stereo not drawn)	> 100 µM (inactive)	–	> 100 µM (inactive)	> 100 µM (inactive)	> 100 µM (inactive)	> 100 µM (inactive)	> 100 µM (inactive)	> 100 µM (inactive)	–
NS(=O)(=O)c1ccc(NC(=O)Cc2nc3ccccc3s2)cc1	15.5 µM (inactive)	15.1 µM (inactive)	18.7 µM (inactive)	18.7 µM (inactive)	14.6 µM (inactive)	19.5 µM (inactive)	16.2 µM (inactive)	17.8 µM (inactive)	16.4 µM (inactive)
COCc1cc2c(s1)C(=O)C1=C(C2=O)C2(C=C(Br)C(=O)C(Br)=C2)CCN1	6.95 µM (inactive)	1.73 µM (inactive)	2.85 µM (inactive)	0.184 µM (active)	1.46 µM (inactive)	7.59 µM (inactive)	7.41 µM (inactive)	15.1 µM (inactive)	–

SMILES	GI50 (DLD-1)	GI50 (DMS-114)	GI50 (DMS-273)	GI50 (KM-20L2)	GI50 (M19-MEL)	GI50 (SNB-78)	GI50 (XF498)	GI50 (HOP-18)	GI50 (RXF 631)
CN(C)CCCNc1ccc2ncn3c4ccccc4c(=O)c1c23	4.94 µM (inactive)	10.5 µM (inactive)	–	7.41 µM (inactive)	12.1 µM (inactive)	14.2 µM (inactive)	–	5.73 µM (inactive)	4.7 µM (inactive)
O=c1c2ccccc2c(=O)c2c1cc(Cl)c1[nH]c3c([nH]c12)c(Cl)cc1c(=O)c2ccccc2c(=O)c13	> 100 µM (inactive)	> 100 µM (inactive)	> 100 µM (inactive)	> 100 µM (inactive)	> 100 µM (inactive)	> 100 µM (inactive)	–	–	–
COc1ccc(OC)c2c1C(=O)C(Cl)=C(Cl)C2=O	3.84 µM (inactive)	2.16 µM (inactive)	7.57 µM (inactive)	10.5 µM (inactive)	4.68 µM (inactive)	4.61 µM (inactive)	1.61 µM (inactive)	3.54 µM (inactive)	–
C=C1CC[C@@H]2C(C)(C)CCC[C@@]2(C)[C@@H]1Cc1cc(O)ccc1O	5.21 µM (inactive)	1.89 µM (inactive)	5.92 µM (inactive)	17.3 µM (inactive)	3.56 µM (inactive)	1.93 µM (inactive)	–	11.2 µM (inactive)	–
O=C1c2ccccc2C(=O)c2sc(Nc3cccc(Cl)c3)nc21	1.94 µM (inactive)	1.36 µM (inactive)	1.87 µM (inactive)	7.45 µM (inactive)	0.322 µM (active)	–	1.73 µM (inactive)	1.63 µM (inactive)	–
Clc1cc(Cl)c2n[se]nc2c1	–	–	> 100 µM (inactive)	> 100 µM (inactive)	> 100 µM (inactive)	> 100 µM (inactive)	–	> 100 µM (inactive)	> 100 µM (inactive)
C=C1CCC2C(C)(CO)C(O)CCC2(C)C1C/C=C1/CCOC1=O (stereo not drawn)	> 100 µM (inactive)	–	> 100 µM (inactive)	> 100 µM (inactive)	> 100 µM (inactive)	–	–	> 100 µM (inactive)	–
CCN(CC)[C@@H]1c2cc3c(cc2C(c2cc(OC)c(O)c(OC)c2)C2C(=O)CO[C@@H]21)OCO3 (stereo partly drawn)	> 100 µM (inactive)	> 100 µM (inactive)	> 100 µM (inactive)	> 100 µM (inactive)	> 100 µM (inactive)	–	> 100 µM (inactive)	–	> 100 µM (inactive)
CC1c2[nH]c3ccccc3c2CCN1O (stereo not drawn)	> 100 µM (inactive)	> 100 µM (inactive)	> 100 µM (inactive)	> 100 µM (inactive)	> 100 µM (inactive)	> 100 µM (inactive)	–	> 100 µM (inactive)	> 100 µM (inactive)
O=C(O)CN(c1ccccc1)S(=O)(=O)c1cccc([N+](=O)[O-])c1	> 100 µM (inactive)	–	> 100 µM (inactive)	> 100 µM (inactive)	> 100 µM (inactive)	–	> 100 µM (inactive)	> 100 µM (inactive)	–
CCOc1ccc(/N=C\c2ccc3cc(C)ccc3n2)cc1	48.8 µM (inactive)	31.1 µM (inactive)	43.2 µM (inactive)	34.7 µM (inactive)	52.4 µM (inactive)	> 100 µM (inactive)	> 100 µM (inactive)	> 100 µM (inactive)	> 100 µM (inactive)
CC1C[C@H](C)CC(C(O)CC2CC(=O)N(Cc3ccccc3)C(=O)C2)C1O (stereo partly drawn)	> 100 µM (inactive)	> 100 µM (inactive)	> 100 µM (inactive)	> 100 µM (inactive)	> 100 µM (inactive)	> 100 µM (inactive)	–	> 100 µM (inactive)	–
NC(=O)C12CCC1C1CCCCC12N1CCOCC1 (stereo not drawn)	> 100 µM (inactive)	–	–	> 100 µM (inactive)	> 100 µM (inactive)	> 100 µM (inactive)	–	> 100 µM (inactive)	> 100 µM (inactive)
COC(=O)C1Cc2c(n(C)c3ccccc23)C(c2ccccc2)N1 (stereo not drawn)	> 10 µM (inactive)	21.8 µM (inactive)	38.8 µM (inactive)	57.8 µM (inactive)	45.6 µM (inactive)	> 100 µM (inactive)	–	> 100 µM (inactive)	> 100 µM (inactive)
CCCNc1ncnc2c1cnn2C	–	> 100 µM (inactive)	> 100 µM (inactive)	> 100 µM (inactive)	> 100 µM (inactive)	> 100 µM (inactive)	> 100 µM (inactive)	> 100 µM (inactive)	–
Cc1cn2c(=O)c3ncn(C4OC(CO)C(O)C4O)c3n(C)c2n1 (stereo not drawn)	> 100 µM (inactive)	> 100 µM (inactive)	> 100 µM (inactive)	> 100 µM (inactive)	> 100 µM (inactive)	> 100 µM (inactive)	–	> 100 µM (inactive)	> 100 µM (inactive)
